Measurements: paper PMC8073686, “Characterization of Subtype Selective Cannabinoid CB2 Receptor Agonists as Potential Anti-Inflammatory Agents” (Pharmaceuticals, 2021)

Legend:
CB2 = molecular target: T1, CB2 (Homo sapiens, UniProt P34972); test: [35S]GTPγS binding assay (G-protein coupling), CB2 containing HEK293T cell membrane; format: biochemical; conditions: stimulation of [35S]GTPγS binding; mean ± S.D.
T1 construct: expressed in transfected cells; host or cells: HEK293T cells, calcium phosphate transfection, membrane preparation
T1 sequence (P34972 whole entry): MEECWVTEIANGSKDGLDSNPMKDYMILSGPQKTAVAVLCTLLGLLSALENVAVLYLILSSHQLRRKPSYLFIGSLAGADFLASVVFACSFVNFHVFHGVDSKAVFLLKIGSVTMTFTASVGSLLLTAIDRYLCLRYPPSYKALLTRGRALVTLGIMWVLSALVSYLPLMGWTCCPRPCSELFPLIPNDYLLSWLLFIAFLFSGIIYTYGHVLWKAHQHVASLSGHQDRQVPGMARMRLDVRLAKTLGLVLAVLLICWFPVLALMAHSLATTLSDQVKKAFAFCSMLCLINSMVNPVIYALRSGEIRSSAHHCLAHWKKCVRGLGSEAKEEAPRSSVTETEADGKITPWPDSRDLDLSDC
Experimental: We also examined if the compounds can induce G-protein coupling and act as CB2 agonists. Three compounds, ABK5-1, ABK5-2, and ABK5-6, were subjected to [^35S]GTPγS binding assays. Increasing concentrations, from 1 nM to 10 μM of the test compounds, were incubated with CB2 containing HEK293T cell membrane and [^35S]GTPγS, which binds to Gi/o in the membrane upon CB2 activation and G-protein coupling. All three compounds stimulated dose-dependent increases of specific [^35S]GTPγS binding (Figure 3).
In the experiment, 1 × 10^6 HEK293T cells were seeded in a 10-cm cell culture dish and cultured for 24 h. Cells were transfected with CB1 or CB2 using the calcium phosphate method. Approximately one day after transfection, cells were harvested and centrifuged at 4 °C for 5 min at 500× g. The pellet was washed with phosphate buffered saline (PBS) twice and resuspended in PBS containing 1% protease-inhibitor cocktail (Sigma-Aldrich, St. Louis, MO, USA) consisting of 104 mM 4-(2-aminoethyl) benzene sulfonyl fluoride hydrochloride (AEBSF), 80 μM apronitin, 4 mM bestatin, 1.64 mM E-64, 2 mM leupeptin, 1.5 mM pepstatin A. Then the cells were subjected to nitrogen cavitation under 750 psi for 5 min using a Parr cell disruption bomb. The lysate was centrifuged at 500× g for 10 min at 4 °C and the supernatant was spun at 116,000× g for 45 min at 4 °C. The pellet, consisting of the cell membrane expressing CB1 or CB2, was resuspended in TME buffer solution (25 mM Tris-HCl, 5 mM MgCl2, and 1 mM EDTA, pH 7.4) with 7% (w/v) sucrose/TME buffer. The concentration of the membrane protein was determined by the Bradford assay (Bradford, 1976).
GTPγS binding assay buffer ([…], pH 7.4, 3 mM MgCl2, 0.2 mM EGTA, and 100 mM NaCl) membrane protein, 1 nM to 10 μM of the test compounds, 0.1 nM [^35S] GTPγS (1250 Ci/mmol; PerkinElmer Life Sciences, Waltham, MA, USA), 0.1% fatty acid free BSA (w/v), 10 μM guanosine diphosphate (GDP) and GTPγS was incubated for 1 h at 30 °C with shaking. […] A Beckman Coulter 6500 liquid scintillation counter was used to measure the radioactivity of the samples. […]

[1] = tested on: IL-2 production in Jurkat cells; test: PHA/PMA-induced IL-2 production in Jurkat cells (ELISA of culture medium); format: cell-based, human; conditions: 10 μM, 24 h
Experimental: Activation of CB2 is known to have anti-inflammatory effects. There are some studies reporting that CB2 agonists decrease cytokine production in immune cells. We also reported that the cannabinoid receptor agonist CP55,940 and ABK5 inhibit cytokine production in the human T cell lines Jurkat and MOLT-4 [24]. Since ABK5-1 and 5-2 were confirmed to be CB2-subtype selective agonists, we were interested to determine whether these compounds also have anti-inflammatory effects. Note, although ABK5-6 had marginally better binding affinity to CB2, it bound to CB1 very, very weakly (i.e., micromolar range). Therefore ABK5-6 was not selected for further evaluations. […] To test if these mRNA changes are reflected in the protein levels of cytokines, the IL-2 and TNF-α concentration in the cell culture medium were measured by ELISA. […]
Figure 4 Effect of ABK5-1 and ABK5-2 on phytohemagglutinin (PHA)/phorbol 12-myristate 13-acetate (PMA)-induced cytokine production in T cells. […] IL-2 and TNF-α mRNA levels were determined by real-time PCR (RT-PCR) after ABK5-1 treatment and (A) 3 h and (B) 24 h of PHA/PMA (phytohemagglutinin/phorbol 12-myristate 13-acetate) stimulation. […] IL-2 and TNF-α mRNA were also examined after ABK5-2 treatment and (E) 3 h and (F) 24 h of stimulation, and protein levels of (G) IL-2 and (H) TNF-α were measured after 24 h stimulation. […]

| SMILES | EC50 (CB2) | decrease of IL-2 production (protein, ELISA) [1] |
| --- | --- | --- |
| CCOC(=O)c1ccccc1NC(=O)CN(c1c(C)cccc1C)S(=O)(=O)c1ccccc1 [ABK5-2] | 24 ± 25 nM | about 42% |
| CCOC(=O)c1ccccc1NC(=O)CN(c1ccc(C)cc1C)S(=O)(=O)c1ccccc1 [ABK5-1] | 11 ± 14 nM | about 42% |
